Series [1] relates to Mus musculus. The series is described as follows: Antidyslipidemic activity in chronic high-fat diet (2.5 w/w cholesterol, 0.5% w/w cholic acid, 10% w/w peanut oil) fed SKH-2 mouse assessed as HDL/LDL ratio in plasma at 56 umol/kg, ip bid for 30 days measured on day 30 (reference value: 0.2 no unit). Format: functional.
Series [2] relates to Mus musculus. The series is described as follows: Effect on food intake in chronic high-fat diet (2.5 w/w cholesterol, 0.5% w/w cholic acid, 10% w/w peanut oil) fed SKH-2 mouse at 56 umol/kg, ip bid for 30 days. Type of series: ADME, organism-based. The note with it: in vivo, 720 h.
The subject of series [3] is Mus musculus. The experiment in a line: Antidyslipidemic activity in chronic high-fat diet (2.5 w/w cholesterol, 0.5% w/w cholic acid, 10% w/w peanut oil) fed SKH-2 mouse assessed as increase in HDL level in plasma at 56 umol/kg, ip bid for 30 days measured on day 30 relative to control. Format: functional.
The target in series [4] is T1, Squalene synthase (Rattus norvegicus) (UniProt Q02769).
T1 sequence (whole entry): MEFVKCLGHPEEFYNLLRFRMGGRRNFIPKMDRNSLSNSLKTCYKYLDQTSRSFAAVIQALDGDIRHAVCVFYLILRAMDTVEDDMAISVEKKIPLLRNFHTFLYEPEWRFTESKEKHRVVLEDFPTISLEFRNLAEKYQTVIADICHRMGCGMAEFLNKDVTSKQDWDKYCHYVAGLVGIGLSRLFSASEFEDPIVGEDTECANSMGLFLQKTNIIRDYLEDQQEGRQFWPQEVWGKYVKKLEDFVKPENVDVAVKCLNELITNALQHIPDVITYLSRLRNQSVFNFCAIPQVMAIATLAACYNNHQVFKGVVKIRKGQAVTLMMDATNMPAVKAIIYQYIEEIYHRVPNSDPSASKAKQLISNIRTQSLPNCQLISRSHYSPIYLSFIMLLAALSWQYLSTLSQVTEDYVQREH
The series is described as follows: (§1) Inhibition of squalene synthase in rat liver microsomes assessed as decrease in conversion of [3H]FPP to squalene. For orientation: Liver microsomes are a subcellular fraction often used to study metabolism.

In series [5] the target is T2, Squalene synthase (Rattus norvegicus, UniProt Q02769).
T2 sequence (Q02769 whole entry): T1 sequence (whole entry)
The description is as §1.

In series [6] the test system is Radical scavenging activity. The experiment in a line: Antioxidant activity assessed as DPPH radical scavenging activity up to 50 uM measured within 15 mins. Format: functional.
Series [7] has as its system Mus musculus. The experiment in a line: Effect on blood glucose level in chronic high-fat diet (2.5 w/w cholesterol, 0.5% w/w cholic acid, 10% w/w peanut oil) fed SKH-2 mouse at 56 umol/kg, ip bid for 30 days. Format: ADME, organism-based. The note with it: in vivo, 720 h.
The subject of series [8] is Mus musculus. The series is described as follows: Antidyslipidemic activity in chronic high-fat diet (2.5 w/w cholesterol, 0.5% w/w cholic acid, 10% w/w peanut oil) fed SKH-2 mouse assessed as increase in HDL level in plasma at 56 umol/kg, ip bid for 30 days measured on day 30 relative to day 0. Type of series: functional.
The test system of series [9] is Radical scavenging activity. The experiment in a line: Antioxidant activity assessed as DPPH radical scavenging activity after 30 mins. Type of series: functional. For orientation: DPPH is a stable violet radical that fades when it is reduced.
For series [10], the system named is Mus musculus. The experiment in a line: Antidyslipidemic activity in chronic high-fat diet (2.5 w/w cholesterol, 0.5% w/w cholic acid, 10% w/w peanut oil) fed SKH-2 mouse assessed as decrease in LDL level in plasma at 56 umol/kg, ip bid for 21 days. Type of series: functional. As to conditions: SKH-2, Plasma, 504 h.
In series [11] the test system is Mus musculus. The series is described as follows: Effect on body weight in chronic high-fat diet (2.5 w/w cholesterol, 0.5% w/w cholic acid, 10% w/w peanut oil) fed SKH-2 mouse at 56 umol/kg, ip bid for 30 days. Type of series: ADME, organism-based. As to conditions: in vivo, 720 h.
Series [12] is described as follows: Antioxidant activity in rat liver microsome membrane assessed as inhibition of lipid peroxidation after 45 mins by TBARS-based spectrophotometric assay. Format: functional, microsomes.
Series [13] has as its target T3, Prostaglandin G/H synthase 1 (Bos taurus) (UniProt O62664).
T3 sequence (whole entry): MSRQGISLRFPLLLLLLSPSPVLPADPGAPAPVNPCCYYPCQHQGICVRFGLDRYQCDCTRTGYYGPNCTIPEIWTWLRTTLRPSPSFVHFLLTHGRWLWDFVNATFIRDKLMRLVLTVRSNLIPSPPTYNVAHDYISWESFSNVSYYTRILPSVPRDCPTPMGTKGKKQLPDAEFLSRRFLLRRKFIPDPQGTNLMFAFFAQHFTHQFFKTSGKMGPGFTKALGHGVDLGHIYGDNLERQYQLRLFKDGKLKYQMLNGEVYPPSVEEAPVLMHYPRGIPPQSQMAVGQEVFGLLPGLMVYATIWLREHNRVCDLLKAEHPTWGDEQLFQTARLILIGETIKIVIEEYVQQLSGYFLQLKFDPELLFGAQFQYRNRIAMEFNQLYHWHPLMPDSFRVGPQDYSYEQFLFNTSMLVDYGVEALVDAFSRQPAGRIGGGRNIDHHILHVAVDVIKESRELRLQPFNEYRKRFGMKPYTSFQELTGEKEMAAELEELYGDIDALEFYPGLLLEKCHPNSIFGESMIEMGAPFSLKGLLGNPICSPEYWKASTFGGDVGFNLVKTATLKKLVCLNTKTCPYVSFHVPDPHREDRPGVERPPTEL
The series is described as follows: Inhibition of bovine COX-1 assessed as PGF2-alpha formation using arachidonic acid as substrate at 20 uM by enzyme immunoassay.

Series [14] relates to Mus musculus. The experiment in a line: Antidyslipidemic activity in chronic high-fat diet (2.5 w/w cholesterol, 0.5% w/w cholic acid, 10% w/w peanut oil) fed SKH-2 mouse assessed as decrease in total cholesterol level in plasma at 56 umol/kg, ip bid for 21 days. As to conditions: SKH-2, Plasma, 504 h. Format: functional.

The source made the active and inactive calls. No cut-off for these calls is given here.

In the case of `CN1CC(O)(c2ccc3c(c2)Nc2ccccc2S3)Sc2ccccc21` (centres undefined), in series [1], the Ratio was found to be 1.3. The Activity result was “Non-toxic” in series [2]; 32% in [3]; “Non-toxic” in [7]; 100% in series [8]; “Non-toxic” in series [11]. The results for the inhibition entry in series [4] and in [13] were “Dose-dependent effect” and 67%, respectively. Moreover, the IC50 (in general, the point on the concentration scale where inhibition reaches its midpoint) in [5] is 3.6 µM; in series [9], 77 µM; in series [12] it was 0.98 µM. In addition, the result in [6] was Active. The inhibition in vivo (usually the change of the read-out against control, counted positive when it falls) at 56 µmol/kg in series [10] was 80%; in [14], 48%.

These data come from ChEMBL document CHEMBL3232866, “Design of novel potent antihyperlipidemic agents with antioxidant/anti-inflammatory properties: exploiting phenothiazine's strong antioxidant activity” (J Med Chem, 2014).
